Measured values taken from patent publication US6583146B1, “Thiazolopyrimidine compounds, its production and use” (Takeda Chemical Industries, Ltd., priority 1999, dated 2003).

Target: T1, human adenosine A3 receptor (Homo sapiens, UniProt P0DMS8)
T1 construct: expressed in transfected cells; membrane fraction used
T1 sequence (P0DMS8 1-318): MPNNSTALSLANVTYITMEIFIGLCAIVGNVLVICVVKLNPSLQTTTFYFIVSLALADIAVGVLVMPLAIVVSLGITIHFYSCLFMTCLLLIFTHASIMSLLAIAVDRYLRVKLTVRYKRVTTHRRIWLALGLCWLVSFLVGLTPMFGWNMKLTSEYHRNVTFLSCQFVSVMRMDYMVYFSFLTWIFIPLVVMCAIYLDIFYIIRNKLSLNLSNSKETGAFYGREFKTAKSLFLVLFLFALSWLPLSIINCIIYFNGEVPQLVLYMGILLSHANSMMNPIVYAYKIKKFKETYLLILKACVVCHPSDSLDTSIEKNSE
Experiment: Binding assays with adenosine A3 receptor ([3H]-NECA displacement, A3AR/CHO cell membranes)
Conditions: [3H]-NECA as ligand; 100 μg/mL membranes of CHO cells expressing human adenosine A3 receptor; 1 hour at room temperature; read-out: IC50 (concentration that inhibits 50% specific binding of [3H]-NECA to the membrane)
Protocol: The following procedures in this Example were carried out according to the methods described in Molecular Cloning —Cold Spring Harbor Laboratory (1989) or protocol specified by manufacturers.
Cloning of the human adenosine A3 receptor gene was carried out by the polymerase chain reaction (PCR) from human brain cDNA. Using 1 ng of brain cDNA (Quick-Clone cDNA, TOYOBO, Osaka) as template, PCR was performed in DNA Thermal Cycler 480 (Perkin Elmer) (reaction conditions: 35 cycles of 1 min at 95° C., 1 min at 66° C., and 2 min at 75° C.) by mixing primers (50 pmol each),
5′-[…]-3′ [Sequence No. 1] and 5′-[…]-3′ [Sequence No. 2], which were designed referring to nucleotide sequence of adenosine A3 receptor gene reported by Salvatore et. al., (Proc. Natl. Acad. Sci. U. S. A., 90:10365-10369, 1993) and TaKaRa LA PCR Kit Ver.2 (TaKaRa Shuzo Co. Ltd., Kyoto). The PCR product was electrophoresed and 1.0 kb DNA fragment was recovered. The DNA fragment encoding adenosine A3 receptor was cloned using Original TA Cloning Kit (FUNAKOSHI, Tokyo).
Thus obtained plasmid was digested with Xba I (TaKaRa Shuzo Co. Ltd., Kyoto), blunted with T4 DNA polymerase (TaKaRa Shuzo Co. Ltd., Kyoto) and digested with Sal I (TaKaRa Shuzo Co. Ltd., Kyoto) to obtain adenosine A3 receptor gene fragment. […]

IC50: 3.5 nM
SMILES: COc1ccc(-c2c(-c3ccncc3)sc3nc(=O)cc(N)n23)cc1 [Example Compound 1, 5-Amino-3-(4-methoxyphenyl)-2-(4-pyridyl)-7H-thiazolo[3,2-a]pyrimidin-7-one]
